# Results from PMC6152211 (Molecules : A Journal of Synthetic Chemistry and Natural …, 2017).
# Like-named read-outs stand apart in the source and are kept apart here.
# How the values were obtained:
# [1] = dog plasma, cited from earlier work
# [2] = rat plasma, cited from earlier work; for share of AUC in plasma: metabolite of sorafenib
# [3] = human plasma, cited from earlier work
# [4] = test system: CYP3A4; settings: cited from earlier work
# [5] = test system: CYP1A2; settings: cited from earlier work
# [6] = Phase I CYP3A4 metabolism study: sorafenib pharmacokinetics after pretreatment with grapefruit juice or ketoconazole (Part B); settings: for F (oral bioavailability) / CL: then single sorafenib 10 mg/kg p.o., mean ± SD, n = 6; for F (oral bioavailability): compared to Group A1 (3 mg/kg, i.v.), rat
# [7] = Herbal drug pharmacokinetic interaction study of sorafenib in rat plasma (Part A); type: in vivo, Male Sprague-Dawley rats; settings: for bioavailability: read-out: F (oral bioavailability)
# Source text: The jugular-catheterized rats were randomly divided into four groups, Groups A1–A4, as described above. […] […] […] Data from these samples were used to construct pharmacokinetic profiles by plotting drug concentrations versus times.
# [8] = test system: rat liver; test: Hepatotoxicity study: serum AST and ALT levels (Part D); type: in vivo
# Procedure: (§1) Hepatotoxicity and histopathological experiments were performed on 42 jugular-catheterized rats that were randomly divided into Groups D1–D7 containing six animals, as described above. In the “Part D” study, an aqueous solution of the LDXGT formulation and sorafenib were each administered to rats by oral gavage. Blood samples were collected from the jugular vein at 0, 0.5 and 1 h after dosing for the […] group. […] Serum was obtained by centrifugation. The levels of the AST and ALT enzymes were determined using an automatic biochemical analysis. After blood sampling, the livers were dissected from the rats in each group and prepared using a series of processes.
# [9] = test system: rat liver; test: Histopathological analysis of liver slices, H&E staining (Part D); type: in vivo
# Procedure: Histopathological analyses were performed to quantitatively evaluate the degree of liver inflammation in our experimental model using a morphometric examination of liver sections and Modified Hepatic Activity Index Grading (Modified HAI Grading; Necroinflammatory Score).
# as §1
# [10] = Group A2: sorafenib 10 mg/kg, p.o. alone, rat plasma, mean ± SD, n = 6
# [11] = Group A4: LDXGT formulation 2 g/kg/day p.o. for 5 consecutive days, then single sorafenib 10 mg/kg p.o., rat plasma, mean ± SD, n = 6
# [12] = male, Sprague-Dawley, rat, plasma, iv, 3 mg/kg, Group A1: sorafenib 3 mg/kg, i.v., rat plasma, mean ± SD, n = 6
# [13] = male, Sprague-Dawley, rat, plasma, po, 10 mg/kg, Group A2: sorafenib 10 mg/kg, p.o. alone, rat plasma, mean ± SD, n = 6
# [14] = male, Sprague-Dawley, rat, plasma, po, 10 mg/kg, Group A3: LDXGT formulation 1 g/kg/day p.o. for 5 consecutive days, then single sorafenib 10 mg/kg p.o., rat plasma, mean ± SD, n = 6
# [15] = male, Sprague-Dawley, rat, plasma, po, 10 mg/kg, Group A4: LDXGT formulation 2 g/kg/day p.o. for 5 consecutive days, then single sorafenib 10 mg/kg p.o., rat plasma, mean ± SD, n = 6
smiles,measurement,setting,value
CNC(=O)c1cc(Oc2ccc(NC(=O)Nc3ccc(Cl)c(C(F)(F)F)c3)cc2)cc[n+]1[O-] [M-2],presence of the metabolite in plasma,[1],absent
same,share of AUC in plasma,[2],0.9 % of AUC
same,share of AUC in plasma,[3]; metabolite of sorafenib,16.7 % of AUC
O=C(Nc1ccc(Oc2ccnc(C(=O)NCO)c2)cc1)Nc1ccc(Cl)c(C(F)(F)F)c1 [M-3],share of AUC in plasma,[1]; metabolite of sorafenib,15.6 % of AUC
same,share of AUC in plasma,[2],12.1 % of AUC
NC(=O)c1cc(Oc2ccc(NC(=O)Nc3ccc(Cl)c(C(F)(F)F)c3)cc2)ccn1 [M-4],presence of the metabolite in plasma,[1],detected
same,presence of the metabolite in plasma,[2],detected
same,presence of the metabolite in plasma,[3],detected
O=c1cc(-c2ccccc2)oc2cc(O)c(O)c(O)c12 [baicalein],effect on CYP3A4 enzyme activity,[4],inhibited
O=C(O)[C@H]1O[C@@H](Oc2cc3oc(-c4ccccc4)cc(=O)c3c(O)c2O)[C@H](O)[C@@H](O)[C@@H]1O [baicalin],effect on CYP1A2 activity,"[5]; in vitro, baicalin in human liver microsomes",inhibits
C=C[C@@H]1C2=CCOC(=O)C2=CO[C@H]1O[C@@H]1O[C@H](CO)[C@@H](O)[C@H](O)[C@H]1O [gentiopicroside],effect on CYP1A2 activity,[5]; microsomes,significant increase
same,effect on CYP3A4 enzyme activity,[4],significant increase
CC(=O)N1CCN(c2ccc(OCC3COC(Cn4ccnc4)(c4ccc(Cl)cc4Cl)O3)cc2)CC1 (stereo not drawn) [ketoconazole],effect on the pharmacokinetics of a single oral sorafenib dose,"[6]; ketoconazole 400 mg/kg/day, sorafenib 10 mg/kg p.o., rats",did not affect
"CNC(=O)c1cc(Oc2ccc(NC(=O)Nc3ccc(Cl)c(C(F)(F)F)c3)cc2)ccn1 [sorafenib, Sorafenib]",time after administration at which maximal plasma concentrations (Cmax) were observed,"[7]; Group A2: single sorafenib 10 mg/kg, p.o., rat plasma, approximately",3 to 8 h
same,CL,[7]; [10],1.8 ± 0.7 mL/min/kg
same,Vss,[7]; [10],1.564 ± 0.477 L/kg
same,CL,"[7]; Group A3: LDXGT formulation 1 g/kg/day p.o. for 5 consecutive days, then single sorafenib 10 mg/kg p.o., rat plasma, mean ± SD, n = 6",2.1 ± 0.8 mL/min/kg
same,F (oral bioavailability),"[7]; Group A4: LDXGT formulation 2 g/kg/day p.o. for 5 consecutive days, then single sorafenib 10 mg/kg p.o., compared to Group A1 (3 mg/kg, i.v.), rat, mean ± SD, n = 6",49 ± 5.0%
same,CL,[7]; [11],1.8 ± 0.2 mL/min/kg
same,Vss,[7]; [11],1.565 ± 0.231 L/kg
same,time after administration at which maximal plasma concentrations were reached,"[7]; each of Groups A2–A4 (sorafenib 10 mg/kg p.o. alone or after LDXGT 1 or 2 g/kg/day), rat plasma, approximately",3 to 8 h
same,concentration at 8 min,"[7]; male, Sprague-Dawley, rat, plasma, intravenous, 3 mg/kg",2840 ng/mL
same,clearance,"[7]; male, Sprague-Dawley, rat, plasma, iv, 3 mg/kg",1.1 ± 0.4 mL/min/kg
same,AUC,[7]; [12],56000 ng·h/mL
same,Cmax,[7]; [12],4600 ± 200 ng/mL
same,half-life,[7]; [12],8.32 ± 4.58 h
same,Vd,"[7]; male, Sprague-Dawley, rat, plasma, iv, 3 mg/kg, read-out: Vss",1.19 ± 0.129 L/kg
same,bioavailability,"[7]; male, Sprague-Dawley, rat, plasma, po, 10 mg/kg, Group A2: sorafenib 10 mg/kg, p.o. alone, compared to Group A1 (3 mg/kg, i.v.), rat, mean ± SD, n = 6",56 ± 20%
same,AUC,[7]; [13],104000 ng·h/mL
same,Cmax,[7]; [13],5000 ± 1400 ng/mL
same,Tmax,[7]; [13],7 h
same,half-life,[7]; [13],10.5 ± 1.97 h
same,AUC,[7]; [14],94200 ng·h/mL
same,Cmax,[7]; [14],4800 ± 1000 ng/mL
same,Tmax,[7]; [14],6.33 h
same,half-life,[7]; [14],10.8 ± 3.2 h
same,AUC,[7]; [15],91500 ng·h/mL
same,Cmax,[7]; [15],4800 ± 700 ng/mL
same,Tmax,[7]; [15],5.17 h
same,half-life,[7]; [15],9.9 ± 2.55 h
same,bioavailability,"[7]; male, Sprague-Dawley, rat, plasma, po, 10 mg/kg",50 ± 24%
same,pharmacokinetic properties across doses (concentration versus time profile),"[7]; pilot study, single dose 10, 20 and 40 mg/kg, p.o., rat plasma",dose-dependent
same,F (oral bioavailability),[6]; Group B1 (GFJ3): grapefruit juice 3 mL/day p.o. for 5 consecutive days,45 ± 11%
same,CL,"[6]; Group B1 (GFJ3): grapefruit juice 3 mL/day p.o. for 5 consecutive days, rat plasma",2.0 ± 0.4 mL/min/kg
same,F (oral bioavailability),[6]; Group B2 (GFJ6): grapefruit juice 6 mL/day p.o. for 5 consecutive days,39 ± 14%
same,CL,"[6]; Group B2 (GFJ6): grapefruit juice 6 mL/day p.o. for 5 consecutive days, rat plasma",2.6 ± 1.1 mL/min/kg
same,F (oral bioavailability),[6]; Group B4 (KCZ40): ketoconazole 40 mg/kg/day p.o. for 5 consecutive days,42 ± 14%
same,CL,"[6]; Group B4 (KCZ40): ketoconazole 40 mg/kg/day p.o. for 5 consecutive days, rat plasma",2.3 ± 0.8 mL/min/kg
same,time after administration at which maximal plasma concentrations were achieved,"[6]; each of Groups A2, B1–B4 (sorafenib 10 mg/kg p.o. alone or after grapefruit juice or ketoconazole), rat plasma, approximately",3 to 8 h
same,bioavailability,"[6]; male, Sprague-Dawley, in vivo, po, 10 mg/kg",52 ± 4.3%
same,liver function (AST and ALT),"[8]; repeated sorafenib 10 mg/kg for 2 weeks alone or combined with LDXGT, Groups D5–D7",marked elevation
same,liver function (AST and ALT),"[8]; single sorafenib dose 10 mg/kg p.o. alone or after LDXGT pretreatment, among Groups D2–D4, 0, 3 and 6 h after dosing",No significant difference
same,liver histopathology (H&E staining),"[9]; repeated administration groups, Groups D5–D7 (sorafenib 10 mg/kg for 2 weeks, alone or with LDXGT)","marked focal inflammation, portal inflammation, focal hemorrhage and congestion, focal lytic necrosis and hepatocyte apoptosis, liver cell degeneration and disrupted intercellular cohesion"
same,liver histopathology (H&E staining),"[9]; single-dose groups, Groups D1–D4 (sorafenib 3 mg/kg i.v. or 10 mg/kg p.o., alone or after LDXGT)","focal inflammation, portal inflammation, focal hemorrhage and congestion, focal lytic necrosis and hepatocyte apoptosis"
